These results are taken from patent US12049445B2, “Compounds having S1P5 receptor agonistic activity” (ONO PHARMACEUTICAL CO., LTD., priority 2018, dated 2024).

A word on the EC50: it is the concentration needed to bring the measured effect to its halfway point. Usually IC50 stands for the concentration needed to halve the response being measured.

Assay [1] addresses T1, human S1P1 (EDG-1) (Homo sapiens, UniProt P21453). The experiment in a line: S1P receptor agonist activity by monitoring intracellular calcium concentration (S1P1). The class given is cell-based. Conditions: for EC50: CHO cells overexpressing human S1P1 (EDG-1) gene, intracellular calcium increase, S1P signal = 100% activity. On the procedure: (§1) Chinese hamster ovary (CHO) cells in which each of a human S1P1 (EDG-1) gene or a human S1P5 (EDG-8) gene was overexpressed were cultured in Ham's F-12 medium containing 10% FBS (fetal bovine serum), penicillin/streptomycin, and geneticin (0.25 mg/mL). The culture medium was replaced one day before performing a calcium assay and on the day of the assay. Four hours after the culture medium replacement, the culture medium was removed, and washing was performed once with phosphate-buffered saline. After the cells were detached by adding 0.05% trypsin EDTA, the cells were recovered by adding a culture medium. The recovered cell suspension was centrifuged to remove the supernatant, and the cells were suspended in phosphate-buffered saline, and the cell number was counted. The cells were suspended in a Hanks solution containing Calcium 6 Assay Reagent (manufactured by Molecular Devices, LLC), 20 mM HEPES, and 2.5 mM probenecid at a cell density of 1.1×10^6 cells/mL, and the suspension was incubated at 37° C. for about 1 hour. Thereafter, the supernatant was removed by centrifugation, and the cells were suspended in a Hanks solution containing 20 mM HEPES, 2.5 mM probenecid, and 0.1% BSA at a cell density of 2.2×10^6 cells/mL. The suspension was inoculated in a 96-well plate at 80 μL/well. The plate was set on a fluorescent drug screening system (FDSS 6000), and the compound and S1P were sequentially added thereto, and an increase in intracellular calcium concentration between before and after the addition was measured at an excitation wavelength of 480 nm and a fluorescence wavelength of 540 nm. The increase in intracellular calcium concentration was evaluated by the signal intensity at the fluorescence wavelength, and the agonist activity of each compound was calculated by assuming the signal intensity when S1P was added instead of the compound to be 100% activity.
On the technique in general: Calcium assays in cells follow changes in intracellular calcium, usually with a dye or a luminescent sensor.

The target in the next assay is human S1P5 (EDG-8) (Homo sapiens, UniProt Q9H228). The experiment in a line: S1P receptor agonist activity by monitoring intracellular calcium concentration (S1P5). It is filed as cell-based. Conditions: for EC50: CHO cells overexpressing human S1P5 (EDG-8) gene, intracellular calcium increase, S1P signal = 100% activity; for balance of S1P5 receptor agonist activity against S1P1 receptor agonist activity (in words): comparison of calcium assay agonist activities at S1P1 and S1P5. On the procedure:
as §1

For assay [2], the target named is T1, human S1P1 (EDG-1). Nature of the assay: Inhibition of binding of [33P]-S1P to S1P1, CHO membrane fraction. Conditions: membrane fraction of CHO cells overexpressing human S1P1; room temperature 60 minutes; read-out: inhibitory activity (IC50 value) for binding of [33P]-S1P to S1P1. On the procedure: (§2) A reaction was carried out in a 96-well microplate by using a membrane fraction of Chinese hamster ovary (CHO) cells each of which was made to overexpress human S1P1 (EDG-1) gene or human S1P5 gene respectively, in an amount of the membrane fraction of 60 μg protein/mL. To each of the well, 100 μL of a vehicle (DMSO) solution or a compound solution at a two-fold concentration each diluted with Binding Buffer (50 mmol/L Tris pH 7.5, 5 mmol/L MgCl2, 0.5% BSA, Complete EDTA free (1 tablet/50 mL)) and 50 μL of 0.16 nmol/L [^33P]-S1P (manufactured by American Radiolabeled Chemicals, Inc.) diluted with Binding Buffer were added, and thereafter, the membrane fraction solution (50 μL) was added thereto, and a reacted was allowed to proceed at room temperature for 60 minutes. After the reaction, suction filtration was carried out by using a 96-well Unifilter, followed by washing with a washing buffer (50 mmol/L Tris pH 7.5, 0.5% BSA) ([…]), and then dried at 50 to 60° C. for 30 to 60 minutes. MicroScint (trade name) 20 (50 μL/well) was added thereto, and the plate was covered with TopSeal-A, and then a radioactivity was measured with TopCount (manufactured by PerkinElmer Co., Ltd.)
(§3) The compound concentration at which 50% of the specific binding of [^33P]-S1P to human S1P1 and human S1P5 was replaced (IC50 value) was used as an evaluation item. […]

The next assay has as its target T2, human S1P5 (Homo sapiens, UniProt Q9H228).
T2 construct: expressed in transfected cells; host or cells: membrane fraction of Chinese hamster ovary (CHO) cells
The experiment in a line: Inhibition of binding of [33P]-S1P to S1P5, CHO membrane fraction. Conditions: membrane fraction of CHO cells overexpressing human S1P5; room temperature 60 minutes; read-out: inhibitory activity (IC50 value) for binding of [33P]-S1P to S1P5. As for the experimental part:
as §2, §3

Each structure is given as a SMILES string. Where a name gives a salt, the structure may show the parent alone. A value given as a limit tells only on which side of the number the result lay.

T1 sequence (P21453 whole entry): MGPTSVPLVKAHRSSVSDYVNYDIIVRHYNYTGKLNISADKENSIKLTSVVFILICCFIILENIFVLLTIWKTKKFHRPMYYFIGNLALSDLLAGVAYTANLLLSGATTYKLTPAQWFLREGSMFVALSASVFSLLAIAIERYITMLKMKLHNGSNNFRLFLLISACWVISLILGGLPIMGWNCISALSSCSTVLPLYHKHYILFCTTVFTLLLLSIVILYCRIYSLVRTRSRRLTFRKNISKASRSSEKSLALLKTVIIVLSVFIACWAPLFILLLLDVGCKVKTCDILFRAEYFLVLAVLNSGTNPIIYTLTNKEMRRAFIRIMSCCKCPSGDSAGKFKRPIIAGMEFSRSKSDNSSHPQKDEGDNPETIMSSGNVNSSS
human S1P5 (EDG-8), sequence (Q9H228 whole entry): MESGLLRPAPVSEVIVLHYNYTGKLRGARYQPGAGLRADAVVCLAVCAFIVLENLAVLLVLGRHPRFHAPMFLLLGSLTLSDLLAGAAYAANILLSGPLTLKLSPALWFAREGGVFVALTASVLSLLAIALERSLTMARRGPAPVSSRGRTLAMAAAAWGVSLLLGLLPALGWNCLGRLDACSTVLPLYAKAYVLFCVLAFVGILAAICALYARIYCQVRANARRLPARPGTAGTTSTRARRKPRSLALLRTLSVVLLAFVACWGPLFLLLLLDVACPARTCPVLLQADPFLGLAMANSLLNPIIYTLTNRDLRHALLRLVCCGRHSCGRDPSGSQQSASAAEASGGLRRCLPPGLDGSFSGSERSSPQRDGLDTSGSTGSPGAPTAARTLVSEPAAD
T2 sequence (Q9H228 whole entry): as above

Regarding `CCCCCCCCOc1ccc2c(c1)CCC(CN1CC(C(=O)O)C1)=C2C.Cl` [Comparative Compound A, 1-{[1-methyl-6-(octyloxy)-3,4-dihydro-2-naphthalenyl]methyl}-3-azetidinecarboxylic acid hydrochloride, reference compound], on human S1P1 (EDG-1) [1], the EC50 was under 3 nM. For the same molecule, on human S1P5 (EDG-8), the concentration giving a half-maximal response (EC50) is 3 nM and the “balance of S1P5 receptor agonist activity against S1P1 receptor agonist activity (in words)” value is given as “S1P1 receptor agonist activity was stronger than the S1P5 receptor agonist activity”.

On to `CCCc1ccc(COc2ccc3c(c2)CCC(CN2CC(C(=O)O)C2)=C3C)c(OC)c1` [Comparative Compound B, 1-({6-[(2-methoxy-4-propylbenzyl)oxy]-1-methyl-3,4-dihydro-2-naphthalenyl}methyl)-3-azetidinecarboxylic acid, reference compound], for which the concentration giving a half-maximal response (EC50) at human S1P1 (EDG-1) [1] is 0.2 nM. At human S1P5 (EDG-8), the EC50 worked out at 2 nM and the “balance of S1P5 receptor agonist activity against S1P1 receptor agonist activity (in words)” value is “S1P1 receptor agonist activity was stronger than the S1P5 receptor agonist activity”.

For `CC1=C(CNCCC(=O)O)CCc2cc(OCCCC3CCCCC3)ccc21` [Comparative Compound C, 3-({[6-(3-cyclohexylpropoxy)-1-methyl-3,4-dihydro-2-naphthalenyl]methyl}amino)propanoic acid hydrochloride], the IC50 on human S1P1 (EDG-1) [2] stood at 1 nM; on human S1P5 it was 8.5 nM.

Regarding `COc1ccc2c(c1)C[C@H](C)C(CN1CC(F)(C(=O)O)C1)=C2` [Comparative Example, (S)-3-fluoro-1-[(6-methoxy-3-methyl-3,4-dihydronaphthalen-2-yl)methyl]azetidine-3-carboxylic acid, reference compound], the EC50 on human S1P1 (EDG-1) [1] and on human S1P5 (EDG-8) was over 10000 nM in each case. For the same molecule, the “S1P1 receptor agonist activity (in words)” value on human S1P1 (EDG-1) [1] (calcium assay, CHO cells overexpressing human S1P1) is reported as “did not have”. In addition, the “S1P5 receptor agonist activity (in words)” value on human S1P5 (EDG-8) (calcium assay, CHO cells overexpressing human S1P5) was “did not have”.

For the molecule `C[C@H]1Cc2cc(OCCCC(F)(F)F)ccc2C=C1CN1CC(C(=O)O)C1` [Example 15 (34), 1-[[(3S)-3-methyl-6-(4,4,4-trifluorobutoxy)-3,4-dihydronaphthalen-2-yl]methyl]azetidine-3-carboxylic acid], the EC50 on human S1P1 (EDG-1) [1] is over 3000 nM; on human S1P5 (EDG-8), 20 nM.

With `C[C@H]1Cc2cc(OCCC(F)=C(F)F)ccc2C=C1CN1CC(F)(C(=O)O)C1` [Example 15 (52), 3-fluoro-1-[[(3S)-3-methyl-6-(3,4,4-trifluorobut-3-enoxy)-3,4-dihydronaphthalen-2-yl]methyl]azetidine-3-carboxylic acid], the concentration for a half-maximal effect (EC50) on human S1P1 (EDG-1) [1] is over 3000 nM; on human S1P5 (EDG-8), 15 nM.

Turning to `[2H]C([2H])([2H])C([2H])([2H])C([2H])([2H])C([2H])([2H])Oc1ccc2c(c1)C[C@H](C)C(CN1CC(C(=O)O)C1)=C2` [Example 15 (70), 1-[[(3S)-3-methyl-6-(1,1,2,2,3,3,4,4,4-nonadeuteriobutoxy)-3,4-dihydronaphthalen-2-yl]methyl]azetidine-3-carboxylic acid], the EC50 at human S1P1 (EDG-1) [1] is over 3000 nM; at human S1P5 (EDG-8), 12 nM.

Regarding `C[C@H]1Cc2cc(OCCCC(F)(F)F)ccc2C=C1CN1CC[C@@H](C(=O)O)C1` [Example 15 (72), (3R)-1-[[(3S)-3-methyl-6-(4,4,4-trifluorobutoxy)-3,4-dihydronaphthalen-2-yl]methyl]pyrrolidine-3-carboxylic acid], the results for the EC50 on human S1P1 (EDG-1) [1] and on human S1P5 (EDG-8) were over 3000 nM and 22 nM, respectively.

Turning to `C[C@H]1Cc2cc(OC/C=C/C(F)(F)F)ccc2C=C1CN1CC(F)(C(=O)O)C1` [Example 15 (82), 3-fluoro-1-[[(3S)-3-methyl-6-[(E)-4,4,4-trifluorobut-2-enoxy]-3,4-dihydronaphthalen-2-yl]methyl]azetidine-3-carboxylic acid], the EC50 at human S1P1 (EDG-1) [1] is over 30000 nM; at human S1P5 (EDG-8) it was 9 nM.

Turning to `C[C@H]1Cc2cc(OCCC(F)(F)F)ccc2C=C1CN1CC(F)(C(=O)O)C1` [Example 15 (86), 3-fluoro-1-{[(3S)-3-methyl-6-(3,3,3-trifluoropropoxy)-3,4-dihydro-2-naphthalenyl]methyl}-3-azetidinecarboxylic acid], the figures for the EC50 on human S1P1 (EDG-1) [1] and on human S1P5 (EDG-8) were over 30000 nM and 26 nM, respectively.

As for `CCCCCOc1ccc2c(c1)C[C@H](C)C(CN1CC(C(=O)O)C1)=C2` [Example 15, 1-[((3S)-3-methyl-6-pentoxy-3,4-dihydronaphthalen-2-yl)methyl]azetidine-3-carboxylic acid], the EC50 was over 3000 nM at human S1P1 (EDG-1) [1] and 3 nM on human S1P5 (EDG-8).

For the molecule `CC(N[C@H]1C[C@@H](C(=O)O)C1)C1=Cc2ccc(OCCCC(F)(F)F)cc2C[C@@H]1C` (stereo partly drawn) [Example 47 (2), cis-3-({1-[(3S)-3-methyl-6-(4,4,4-trifluorobutoxy)-3,4-dihydro-2-naphthalenyl]ethyl}amino)cyclobutanecarboxylic acid], the concentration for a half-maximal effect (EC50) on human S1P1 (EDG-1) [1] was over 30000 nM; on human S1P5 (EDG-8) it was 1100 nM.

For `CCCOCc1ccc2c(c1)C[C@H](C)C(CN1CC(C(=O)O)C1)=C2` [Example 57 (2), 1-{[(3S)-3-methyl-6-(propoxymethyl)-3,4-dihydro-2-naphthalenyl]methyl}-3-azetidinecarboxylic acid], the EC50 at human S1P1 (EDG-1) [1] was over 30000 nM; on human S1P5 (EDG-8), 98 nM.
